Assay results published in patent US20130289083A1, “IDO Inhibitors” (priority 2007, published 2013).
Read-outs that look alike come from different tables or passages of the source.

Tests used:
[1] = target: purified human IDO protein (Homo sapiens, UniProt P14902); assay: Enzymatic IDO assay (kynurenine production, absorbance 480 nm); conditions: enzymatic activity
human IDO = human IDO (Homo sapiens, UniProt P14902); assay: Cell based IDO/kynurenine assay in IDO-293-T-Rex cells; conditions: kynurenine production, read-out: hIDO EC50
Sequence of human IDO (P14902 whole entry): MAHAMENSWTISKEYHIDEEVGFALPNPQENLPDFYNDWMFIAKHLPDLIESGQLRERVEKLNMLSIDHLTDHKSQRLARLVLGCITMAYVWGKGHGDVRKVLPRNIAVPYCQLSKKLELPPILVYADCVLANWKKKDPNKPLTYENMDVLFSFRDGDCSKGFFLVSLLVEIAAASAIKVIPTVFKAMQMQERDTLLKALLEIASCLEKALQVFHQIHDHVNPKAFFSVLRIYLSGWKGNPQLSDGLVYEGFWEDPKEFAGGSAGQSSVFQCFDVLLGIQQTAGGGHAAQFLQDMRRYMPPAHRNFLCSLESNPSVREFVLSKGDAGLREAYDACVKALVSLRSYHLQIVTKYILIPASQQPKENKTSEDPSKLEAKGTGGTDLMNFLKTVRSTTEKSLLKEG
Method: 293-T-REx™ cells (Invitrogen) constitutively express a tet operator binding repressor protein and are maintained in DMEM, 10% FBS, 1× Penicillin+Streptomycin, 2 mM L-glutamine, 5 μg/mL blasticidin at 37° C. with a 5% CO2 in air atmosphere and typically split prior to confluency. Cells were passed by splitting the culture 1/10—by removing media by aspiration, washing 1× with PBS, incubating with 0.25% trypsin/EDTA until the cells detach, disbursing the cells in fresh growth media, and plating at 1/10 dilutions in fresh growth media. For long term cryopreservation, cells are detached from the plate as described above, collected by centrifugation, resuspended in freeze medium (growth medium, 10% DMSO), stored in 1.8 mL cyropreservation vials (˜2−5×10^6 cells per vial), in liquid nitrogen vapor storage tanks.
IDOl-expressing 293-T-Rex™ cell lines were generated by stable transfection of plasmid pcDNA-tetO-IDO expressing human IDO or murine IDO under the control of the doxycycline-inducible CMV-tet promoter. Transfected cells were selected in DBZ medium (DMEM, 10% FBS, 1× Penicillin+Streptomycin, 2 mM L-glutamine, 5 μg/mL blasticidin and 25 μg/ml Zeocin) at 37° C. with a 5% CO2 in air atmosphere. Individual clones were isolated by limiting dilution cloning from these populations.
[…]. The cells incubated in Neutral medium serve as negative control of the assay. The cells incubated in Induction medium and without inhibitor serve as the positive control of the assay. The incubation is carried out for 16 h at 37° C. in a cell culture incubator. 200 μL of medium are transferred to U-bottom polypropylene 96-well plates containing 25 μL of 30% TCA, incubated 30 minutes at 60° C. and centrifuged at 3400 g for 5 minutes. 150 μL of the clear supernatant is transferred to a polystyrene 96-well plate containing 50 μL of 4% (w/v) of p-dimethylaminobenzaldehyde in acetic acid, incubated for 10 min. Kynurenine concentration is determined by measuring the absorbance at 480 nm.
The conditions of the assay were as described in the examples.

[2] = hIDO IC50, Table 15, recombinant human IDO
[3] = Table 15, 293T cells expressing human IDO
[4] = hIDO IC50, recombinant human IDO, values reported in ranges
[5] = 293T cell line stably expressing human IDO, values reported in ranges
[6] = read-out: hIDO IC50, recombinant human IDO, values reported in ranges

Sequence of purified human IDO protein (P14902 whole entry P110S/E119G): as the sequence (P14902 whole entry) above, with P110S, E119G counted along it

Row | SMILES | IC50 [1, 2] | EC50 (human IDO; [3]) | IC50 [1, 4] | EC50 (human IDO; [5]) | IC50 [1, 6]
1 | NOCc1cc(Cl)ccc1-c1ccc2[nH]ccc2c1 [compound 1930, O-(5-chloro-2-(1H-indol-5-yl)benzyl)hydroxylamine] | < 10 µM | < 10 µM |  |  | 
2 | O=C(Cc1csc(=S)[nH]1)NCc1ccc2ccccc2c1 [compound 701, N-(Naphthalen-2-ylmethyl)-2-(2-thioxo-2,3-dihydrothiazol-4-yl)acetamide] |  |  | 100 to 1000 µM | 100 to 1000 µM | 
3 | NCC(ON)c1ccccc1 (stereo not drawn) [compound 1875, 2-(aminooxy)-2-phenylethanamine] | 10 to 100 µM | > 1000 µM |  |  | 
4 | S=C(NCCc1c[nH]c2ccccc12)SCCc1c[nH]c2ccccc12 [compound 30, 2-(1H-Indol-3-yl)ethyl 2-(1H-indol-3-yl)ethylcarbamodithioate] |  |  | 100 to 1000 µM | 20 to 100 µM | 
5 | Cc1ccc2cc(CSC(=S)NCCc3c[nH]c4ccccc34)ccc2n1 [compound 38, (2-Methylquinolin-6-yl)methyl 2-(1H-indol-3-yl)ethylcarbamodithioate] |  |  | 100 to 1000 µM | 20 to 100 µM | 
6 | S=C(NCCc1c[nH]c2ccccc12)SCCc1ccc(Br)cc1 [compound 4, 4-Bromophenethyl 2-(1H-indol-3-yl)ethylcarbamodithioate] |  |  | 100 to 1000 µM | 20 to 100 µM | 
7 | COc1cc2oc(=O)cc(CSC(=S)NCCc3c[nH]c4ccccc34)c2cc1OC [compound 23, (6,7-Dimethoxy-2-oxo-2H-chromen-4-yl)methyl 2-(1H-indol-3-yl)ethyl-carbamodithioate] |  |  | 100 to 1000 µM | 20 to 100 µM | 
8 | S=C(NCCc1csc2ccccc12)SCc1ccc2ccccc2c1 [compound 60] |  |  |  | 20 to 100 µM | 20 to 100 µM
9 | NOC(COc1ccccc1)c1ccccc1 (stereo not drawn) [compound 1937, O-(2-phenoxy-1-phenylethyl)hydroxylamine] | < 10 µM | < 10 µM |  |  | 
10 | COC(=O)c1ccc(-c2ccc(Cl)cc2CON)cc1 [compound 1935, methyl 2′-(aminooxymethyl)-4′-chlorobiphenyl-4-carboxylate] | < 10 µM | < 10 µM |  |  | 
11 | Cc1ccc(C)c(C(C)CC(=O)O)c1 (stereo not drawn) [compound 261, 3-(2,5-dimethylphenyl)butanoic acid] |  |  | 100 to 1000 µM | 20 to 100 µM | 
12 | O=C1C(O)=C(CC2=C(O)C(=O)c3ccccc3C2=O)C(=O)c2ccccc21 [compound 477] |  |  | < 20 µM | 20 to 100 µM | 
13 | Cc1cc2ccccc2cc1CCSC(=S)NCCc1c[nH]c2ccccc12 [compound 47, 2-(3-methylnaphthalen-2-yl)ethyl 2-(1H-indol-3-yl)ethylcarbamodithioate] |  |  | 100 to 1000 µM | 20 to 100 µM | 
14 | CC(CSC(=S)NCCc1c[nH]c2ccccc12)c1ccccc1 (stereo not drawn) [compound 6, 2-Phenylpropyl 2-(1H-indol-3-yl)ethylcarbamodithioate] |  |  | 100 to 1000 µM | 100 to 1000 µM | 
15 | Oc1ccccc1C(=S)NCCc1ccccc1 [compound 634, 2-Hydroxy-N-phenethylbenzothioamide] |  |  | 100 to 1000 µM | 100 to 1000 µM | 
16 | CC(=O)C1C2CCC(C2)C1(C)C (stereo not drawn) [compound 289, 1-(3,3-dimethylbicyclo[2.2.1]heptan-2-yl)ethanone] |  |  | 100 to 1000 µM | 1000 to 10000 µM | 
17 | Oc1cc(O)nc(SCc2ccccc2)n1 [compound 222, 2-(benzylthio)pyrimidine-4,6-diol] |  |  | 100 to 1000 µM | 20 to 100 µM | 
18 | CSC(=S)NCCc1c[nH]c2cc(F)c(F)c(F)c12 [compound 45] |  |  |  | 100 to 1000 µM | 100 to 1000 µM
19 | O=C1NC(=S)S/C1=C\c1ccc2c(c1)OCO2 [compound 148, (Z)-5-(benzo[d][1,3]dioxol-5-ylmethylene)-2-thioxothiazolidin-4-one] |  |  | 100 to 1000 µM | 100 to 1000 µM | 
20 | Oc1ccccc1C(=S)NCc1ccc2ccccc2c1 [compound 607, 2-hydroxy-N-(naphthalen-2-ylmethyl)benzothioamide] |  |  | 20 to 100 µM | 20 to 100 µM | 

Row | SMILES | IC50 [1, 2] | EC50 (human IDO; [3]) | IC50 [1, 4] | EC50 (human IDO; [5]) | IC50 [1, 6]
21 | Cc1ccc(CCSC(=S)NCCc2c[nH]c3ccccc23)cc1 [compound 9, 4-Methylphenethyl 2-(1H-indol-3-yl)ethylcarbamodithioate] |  |  | 100 to 1000 µM | 20 to 100 µM | 
22 | Oc1ccccc1C(=S)NCCc1c[nH]c2ccccc12 [compound 644, N-(2-(1H-indol-3-yl)ethyl)-2-hydroxybenzothioamide] |  |  | 100 to 1000 µM | 20 to 100 µM | 
23 | O=C1C=C(O)C(=O)c2nc(O)ccc21 [compound 320, 2,7-dihydroxyquinoline-5,8-dione] |  |  | < 20 µM | 1000 to 10000 µM | 
24 | Oc1cccc2ccccc12 [compound 168, naphthalen-1-ol] |  |  | 100 to 1000 µM | 100 to 1000 µM | 
25 | CSC(=S)NCCc1c[nH]c2ccc([N+](=O)[O-])cc12 [compound 40] |  |  |  | 100 to 1000 µM | 100 to 1000 µM
26 | NC(CSC(=S)NCc1ccccc1)C(=O)O (stereo not drawn) [compound 138, 2-amino-3-(benzylcarbamothioylthio)-propanoic acid] |  |  | 100 to 1000 µM | 20 to 100 µM | 
27 | O=C1C=Cc2ccccc2C1=O [compound 167, naphthalene-1,2-dione] |  |  | < 20 µM | 20 to 100 µM | 
28 | S=C(NCCc1c[nH]c2ccccc12)SCCc1cccc(Cl)c1 [compound 8, 3-Chlorophenethyl 2-(1H-indol-3-yl)ethylcarbamodithioate] |  |  | 100 to 1000 µM | 100 to 1000 µM | 
29 | CSC(=S)NCCc1c[nH]c2cc(Cl)cc(Cl)c12 [compound 43] |  |  |  | 100 to 1000 µM | 100 to 1000 µM
30 | S=C(NCCc1c[nH]c2ccccc12)SCCc1ccc2c(c1)OCCO2 [compound 53, 2-(2,3-Dihydrobenzo[b][1,4]dioxin-6-yl)ethyl 2-(1H-indol-3-yl)ethyl-carbamodithioate] |  |  | 100 to 1000 µM | 20 to 100 µM | 
31 | Oc1ccccc1C(=S)NCCc1csc2ccccc12 [compound 672, N-(2-(benzo[b]thiophen-3-yl)ethyl)-2-hydroxybenzothioamide] |  |  | 100 to 1000 µM | 20 to 100 µM | 
32 | Cc1ccc(SC(=S)Nc2ccccc2)cc1 [compound 142, p-tolyl phenylcarbamodithioate] |  |  | < 20 µM | 100 to 1000 µM | 
33 | S=C(NCCC1CCc2ccccc2O1)SCc1ccc2ccccc2c1 (stereo not drawn) [compound 63, naphthalen-2-ylmethyl 2-(chroman-2-yl)ethylcarbamodithioate] |  |  | 20 to 100 µM | 20 to 100 µM | 
34 | O=C(Cc1csc(=S)[nH]1)NCc1c[nH]c2ccccc12 [compound 561, N-((1H-indol-3-yl)methyl)-2-(2-thioxo-2,3-dihydrothiazol-4-yl)acetamide] |  |  | 100 to 1000 µM | 20 to 100 µM | 
35 | Cc1c(O)c(=O)ccn1CCc1c[nH]c2ccccc12 [compound 552, 1-(2-(1H-indol-3-yl)ethyl)-3-hydroxy-2-methylpyridin-4(1H)-one] |  |  | 100 to 1000 µM | 20 to 100 µM | 
36 | Nc1ccc2[nH]cc(CCC(=O)O)c2c1 [compound 325, 3-(5-amino-1H-indol-3-yl)propanoic acid] |  |  | 100 to 1000 µM | 1000 to 10000 µM | 
37 | S=C(NCCc1c[nH]c2ccccc12)SCCc1cccc(Br)c1 [compound 7, 3-Bromophenethyl 2-(1H-indol-3-yl)ethylcarbamodithioate] |  |  | 100 to 1000 µM | 100 to 1000 µM | 
38 | NOC(COCc1ccccc1)c1ccccc1 (stereo not drawn) [compound 1933, O-(2-(benzyloxy)-1-phenylethyl)hydroxylamine] | < 10 µM | < 10 µM |  |  | 
39 | S=C(NCCc1noc2ccccc12)SCc1ccc2ccccc2c1 [compound 58] |  |  |  | 20 to 100 µM | 100 to 1000 µM
